Measurements from ChEMBL document CHEMBL3593218, “4,6-Substituted-1,3,5-triazin-2(1H)-ones as monocyclic catalytic inhibitors of human DNA topoisomerase IIα targeting the ATP binding site” (Bioorg Med Chem, 2015).

Experiments:
[1] = target: T1, DNA topoisomerase 2-alpha (Homo sapiens, UniProt P11388); experiment: Inhibition of human DNA topoisomerase IIalpha using plasmid pNO1 as a substrate after 30 mins
[2] = target: T1, DNA topoisomerase 2-alpha; experiment: Inhibition of human DNA topoisomerase IIalpha assessed as decatenation of kDNA at 3.9 uM after 90 mins by ethidium bromide staining; design: scale not given: the % may be the effect or the level left
[3] = target: T1, DNA topoisomerase 2-alpha; experiment: Inhibition of human DNA topoisomerase IIalpha ATPase activity assessed as residual ATP hydrolysis at 3.9 uM measured up to 60 mins
[4] = target: T1, DNA topoisomerase 2-alpha; experiment: Inhibition of human DNA topoisomerase IIalpha assessed as reduction in enzyme-catalyzed supercoiling of relaxed circular pBR322 DNA by measuring linear DNA level at 50 uM after 60 mins by agarose gel electrophoresis; design: scale not given: the % may be the effect or the level left
[5] = target: T1, DNA topoisomerase 2-alpha; experiment: Inhibition of human DNA topoisomerase IIalpha assessed as reduction in enzyme-catalyzed supercoiling of relaxed circular pBR322 DNA by measuring linear DNA level at 500 uM after 60 mins by agarose gel electrophoresis; design: scale not given: the % may be the effect or the level left
[6] = target: T1, DNA topoisomerase 2-alpha; experiment: Inhibition of human DNA topoisomerase IIalpha assessed as reduction in enzyme-catalyzed supercoiling of relaxed circular pBR322 DNA by measuring linear DNA level at 125 uM after 60 mins by agarose gel electrophoresis; design: scale not given: the % may be the effect or the level left
[7] = target: T1, DNA topoisomerase 2-alpha; experiment: Inhibition of human DNA topoisomerase IIalpha assessed as reduction in enzyme-catalyzed supercoiling of relaxed circular pBR322 DNA by measuring linear DNA level at 31.5 uM after 60 mins by agarose gel electrophoresis; design: scale not given: the % may be the effect or the level left
[8] = target: T1, DNA topoisomerase 2-alpha; experiment: Inhibition of human DNA topoisomerase IIalpha ATPase activity assessed as residual ATP hydrolysis at 500 uM measured up to 60 mins
[9] = target: T1, DNA topoisomerase 2-alpha; experiment: Inhibition of human DNA topoisomerase IIalpha assessed as reduction in enzyme-catalyzed supercoiling of relaxed circular pBR322 DNA by measuring linear DNA level at 3.9 uM after 60 mins by agarose gel electrophoresis; design: scale not given: the % may be the effect or the level left
[10] = target: T1, DNA topoisomerase 2-alpha; experiment: Inhibition of human DNA topoisomerase IIalpha assessed as reduction in enzyme-catalyzed supercoiling of relaxed circular pBR322 DNA by measuring linear DNA level at 62.5 uM after 60 mins by agarose gel electrophoresis; design: scale not given: the % may be the effect or the level left
[11] = target: T1, DNA topoisomerase 2-alpha; experiment: Inhibition of human DNA topoisomerase IIalpha ATPase activity assessed as residual ATP hydrolysis at 31.5 uM measured up to 60 mins
[12] = target: T1, DNA topoisomerase 2-alpha; experiment: Inhibition of human DNA topoisomerase IIalpha assessed as decatenation of kDNA at 500 uM after 90 mins by ethidium bromide staining; design: scale not given: the % may be the effect or the level left
[13] = target: T1, DNA topoisomerase 2-alpha; experiment: Inhibition of human DNA topoisomerase IIalpha assessed as decatenation of kDNA at 125 uM after 90 mins by ethidium bromide staining; design: scale not given: the % may be the effect or the level left
[14] = target: T1, DNA topoisomerase 2-alpha; experiment: Inhibition of human DNA topoisomerase IIalpha assessed as decatenation of kDNA at 31.5 uM after 90 mins by ethidium bromide staining; design: scale not given: the % may be the effect or the level left
[15] = target: T1, DNA topoisomerase 2-alpha; experiment: Inhibition of human DNA topoisomerase IIalpha ATPase activity assessed as residual ATP hydrolysis at 125 uM measured up to 60 mins
[16] = Lipophilicity, log P of the compound; format: physicochemical; details: octanol/water

T1 sequence (P11388 whole entry): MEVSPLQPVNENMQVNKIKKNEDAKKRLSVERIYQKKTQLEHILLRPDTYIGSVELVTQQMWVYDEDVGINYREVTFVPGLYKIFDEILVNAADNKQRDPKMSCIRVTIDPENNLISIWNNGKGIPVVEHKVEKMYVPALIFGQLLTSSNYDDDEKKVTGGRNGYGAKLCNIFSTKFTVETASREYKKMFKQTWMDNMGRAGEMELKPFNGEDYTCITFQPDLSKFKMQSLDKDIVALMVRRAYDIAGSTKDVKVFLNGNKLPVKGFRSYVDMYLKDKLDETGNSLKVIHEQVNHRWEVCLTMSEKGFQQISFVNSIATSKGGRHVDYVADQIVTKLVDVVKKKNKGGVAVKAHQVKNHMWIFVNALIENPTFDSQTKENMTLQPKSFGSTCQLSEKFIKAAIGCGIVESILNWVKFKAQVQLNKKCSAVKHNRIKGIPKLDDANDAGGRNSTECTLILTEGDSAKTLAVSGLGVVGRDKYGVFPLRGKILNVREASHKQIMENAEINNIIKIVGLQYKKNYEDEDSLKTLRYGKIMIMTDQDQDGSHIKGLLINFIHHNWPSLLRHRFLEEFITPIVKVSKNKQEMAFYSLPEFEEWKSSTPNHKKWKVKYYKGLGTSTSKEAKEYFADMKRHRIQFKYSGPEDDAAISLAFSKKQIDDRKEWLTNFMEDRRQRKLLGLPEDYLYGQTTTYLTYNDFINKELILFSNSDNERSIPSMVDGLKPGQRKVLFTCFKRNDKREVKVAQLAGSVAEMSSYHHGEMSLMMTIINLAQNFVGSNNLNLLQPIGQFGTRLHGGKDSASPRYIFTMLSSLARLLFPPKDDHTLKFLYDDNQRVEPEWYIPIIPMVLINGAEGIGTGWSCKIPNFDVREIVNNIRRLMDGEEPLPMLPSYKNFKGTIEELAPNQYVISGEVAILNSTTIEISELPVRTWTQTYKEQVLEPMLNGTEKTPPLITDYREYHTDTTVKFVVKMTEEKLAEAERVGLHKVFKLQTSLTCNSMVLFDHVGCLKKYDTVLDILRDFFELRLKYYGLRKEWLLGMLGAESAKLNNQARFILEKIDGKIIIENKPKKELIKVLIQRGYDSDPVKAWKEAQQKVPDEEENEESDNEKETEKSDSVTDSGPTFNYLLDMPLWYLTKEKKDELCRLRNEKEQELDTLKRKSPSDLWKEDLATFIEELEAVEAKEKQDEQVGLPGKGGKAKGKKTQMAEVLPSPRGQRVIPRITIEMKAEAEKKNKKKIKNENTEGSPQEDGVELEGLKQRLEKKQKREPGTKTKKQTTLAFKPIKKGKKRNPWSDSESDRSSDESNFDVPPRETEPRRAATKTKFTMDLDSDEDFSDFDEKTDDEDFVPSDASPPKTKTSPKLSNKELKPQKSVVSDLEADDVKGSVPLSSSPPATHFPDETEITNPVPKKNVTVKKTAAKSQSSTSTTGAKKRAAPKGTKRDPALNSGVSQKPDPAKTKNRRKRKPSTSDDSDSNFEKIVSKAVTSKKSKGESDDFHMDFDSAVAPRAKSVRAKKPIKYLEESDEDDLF

Compound	IC50 [1]	further results
O=c1nc(SCc2ccccc2)nc(SCc2ccc(F)cc2)[nH]1	147 µM	–
O=c1nc(SCc2ccccc2)nc(SCc2cccc([N+](=O)[O-])c2)[nH]1	488 µM	–
COc1nc(N[C@H](CCC(=O)O)C(=O)O)nc(OC)n1	> 1000 µM	–
COc1ccc(CNc2nc(Cl)nc(Nc3ccccc3CCO)n2)cc1	> 1000 µM	–
COc1ccc(CSc2nc(SCc3ccccc3)nc(=O)[nH]2)cc1	> 1000 µM	–
O=c1nc(SCc2ccccc2)nc(SCc2ccc([N+](=O)[O-])cc2)[nH]1	359 µM	–
COc1cc([C@@H]2c3cc4c(cc3[C@@H](O[C@@H]3O[C@@H]5CO[C@@H](C)O[C@H]5[C@H](O)[C@H]3O)[C@H]3COC(=O)[C@H]23)OCO4)cc(OC)c1O	–	Activity [2]: 88.3%; Activity [3]: 65.4%; Activity [4]: 34.6%; Activity [5]: 32.5%; Activity [6]: 36.1%; Activity [7]: 34.3%; Activity [8]: 18.7%; Activity [9]: 12.4%; Activity [10]: 18.1%; Activity [11]: 45.8%; Activity [12]: 3.25%; Activity [13]: 14.2%; Activity [14]: 68.8%; Activity [15]: 31.8%
N#Cc1ccc(CSc2nc(SCc3ccccc3)nc(=O)[nH]2)cc1	153 µM	–
N#Cc1ccc(CSc2nc(SCc3ccccc3)nc(=O)[nH]2)c(F)c1	486 µM	–
N#Cc1ccccc1CSc1nc(SCc2ccccc2)nc(=O)[nH]1	522 µM	–
N#Cc1cccc(CSc2nc(SCc3ccccc3)nc(=O)[nH]2)c1	528 µM	–
O=c1nc(SCc2ccccc2)nc(SCc2ccccc2Cl)[nH]1	94.1 µM	logP [16]: 3.3
O=C1NC(SCc2ccccc2)=NC(Sc2ccccc2)N1 (centres undefined)	> 1000 µM	–
O=C(O)c1ccccc1Sc1nc(Cl)nc(Cl)n1	> 1000 µM	–
COc1ccc(CNc2nc(Cl)nc(Cl)n2)cc1	> 1000 µM	–
O=C(O)CSC1N=C(SCc2ccccc2)NC(=O)N1 (centres undefined)	> 1000 µM	–
COC(=O)c1ccccc1Oc1nc(OC)nc(OC)n1	> 1000 µM	–
CCc1ccccc1Nc1nc(Cl)nc(Cl)n1	> 1000 µM	–
COc1ccccc1CSc1nc(SCc2ccccc2)nc(=O)[nH]1	> 1000 µM	–
OCCc1ccccc1Nc1nc(Cl)nc(Cl)n1	> 1000 µM	–
COc1nc(OC)nc(Sc2ccccc2C(=O)O)n1	> 1000 µM	–
O=c1nc(-c2ccccc2)nc(S)[nH]1	> 1000 µM	–
O=c1nc(SCc2ccccc2)nc(S)[nH]1	> 1000 µM	–
CN(CCO)c1nc(Cl)nc(Nc2ccccc2CCO)n1	> 1000 µM	–
O=c1nc(SCc2ccccc2)nc(SCC2CCCCC2)[nH]1	> 1000 µM	–
